Measurements as given in patent publication US9744164B2, “Neuroprotective polyphenol analogs” (Salk Institute for Biological Studies, priority 2011, dated 2017).

Test system: N9 microglial cells
Experiment: anti-inflammatory assay, LPS-induced microglial activation (NO release)
Format: cell-based, mouse
Conditions: bacterial lipopolysaccharide, derivative 1-10 μM, 24 hr
Procedure: Anti-inflammatory assay. Mouse N9 microglial cells plated in DME with 7.5% DFCS were treated with 10 μg/ml bacterial lipopolysaccharide (Sigma) alone or in the presence of the Fisetin derivatives (1-10 μM) or Fisetin (10 μM) as a positive control. After 24 hr the medium was removed, spun briefly to remove floating cells and 100 μl assayed for NO using 100 μl of the Griess Reagent (Sigma) in a 96 well plate. After incubation for 10 min at room temperature the absorbance at 550 nm was read on a microplate reader.
Three secondary screens allowed assessment of three key activities of Fisetin that are highly relevant to stroke, as well as other neurological disorders: maintenance of glutathione (GSH), the major endogenous cellular antioxidant, inhibition of LPS-induced microglial activation, an indicator of anti-inflammatory activity and PC12 cell differentiation, a measure of neurotrophic activity. All of these activities are relevant to the nerve cell loss seen in stroke (Gelderblom, et al., Stroke. 2009, 40 (5), 1849-1857; Pandya, et al., Cent. Nerv. Syst. Agents. Med. Chem. (2011) Apr. 27; Lewerenz, et al., J. Neurochem. (2010) 113 (2), 502-504). […] To assess GSH maintenance, total intracellular GSH levels after a 24 hr treatment with the compound both in the absence and presence of glutamate, an inducer of GSH loss and oxidative stress (Tan, et al., Curr. Top. Med. Chem. (2001) 1, 497-506; Maher, et al., Free Radical Research. (2006) 40 (10), 1105-1111) was measured Inhibition of LPS-induced microglial activation was determined by treating N9 mouse microglial cells with LPS alone and in the presence of the compounds and assaying NO release into the medium 24 hr later (Zheng, et al., Int. Immunopharmacol. (2008) 8, (3), 484-494). PC12 cell differentiation was determined by treating PC12 cells with the compounds and looking at neurite outgrowth after 24 hr. In all cases, Fisetin was used as a positive control (Sagara, et al., J. Neurochem. (2004) 90, 1144-1155).
The roles of the four different hydroxyl groups in the activity of Fisetin were studied. […] Cell viability was determined after 24 hr by the MTT assay. The ability to maintain GSH (GSH) was determined by treating HT22 cells with different doses of each derivative (1-10 μM) in the presence of 5 mM glutamate. After 24 hr cell extracts were prepared and analyzed for total GSH. Fisetin (10 μM) was used as a positive control. The ability to induce PC12 cell differentiation (PC12 diff'n) was determined by treating PC12 cells in N2 medium with different doses of each derivative (1-10 μM) for 24 hr. Differentiation was assessed by visual inspection with Fisetin (10 μM) as a positive control. Anti-inflammatory activity (microglia) was assessed in N9 microglial cells treated with bacterial lipopolysaccharide alone or in the presence different doses of each derivative (1-10 μM) for 24 hr. Fisetin was used as a positive control. TEAC values, a measure of direct antioxidant activity, were determined using the ABTS+ decolorization assay.

## COc1cc(-c2cc(OC)c3ccccc3n2)ccc1O [CMS-017, 4-methoxy-2-(4-hydroxy,3-methoxyphenyl)quinoline]
  microglia (anti-inflammatory activity): 90%

## COc1cc(-c2ccccc2)nc2ccccc12 [CMS-021, 4-methoxy-2-phenylquinoline]
  microglia (anti-inflammatory activity): 6%

## CCOc1ccc(-c2oc3cc(C)c(C)cc3c(=O)c2O)cc1OCC [CMS-025, 2-(3,4-diethoxyphenyl)-3-hydroxy-6,7-dimethyl-4H-chromen-4-one]
  microglia (anti-inflammatory activity): 11%

## Cc1cc2oc(-c3ccc(O)c(O)c3)c(O)c(=O)c2cc1C [CMS-027, 2-(3,4-dihydroxyphenyl)-3-hydroxy-6,7-dimethyl-4H-chromen-4-one]
  microglia (anti-inflammatory activity): 82%

## CCOc1ccc(-c2oc3c(ccc4ccccc43)c(=O)c2O)cc1OCC [CMS-036, 2-(3,4-diethoxyphenyl)-3-hydroxy-4H-benzo[h]chromen-4-one]
  microglia (anti-inflammatory activity): 13%

## O=c1c(O)c(-c2ccc(O)c(O)c2)oc2ccc3ccccc3c12 [CMS-041, 3-(3,4-dihydroxyphenyl)-2-hydroxy-1H-benzo[f]chromen-1-one]
  microglia (anti-inflammatory activity): 87%

## COc1cc(-c2cc(=O)c3cc(C)c(C)cc3o2)ccc1OCc1ccccc1 [CMS-058, 2-(4-(benzyloxy)-3-methoxyphenyl)-6,7-dimethyl-4H-chromen-4-one]
  microglia (anti-inflammatory activity): 83%

## COc1cc(-c2oc3cc(C)c(C)cc3c(=O)c2O)ccc1OCc1ccccc1 [CMS-059, 2-(4-(benzyloxy)-3-methoxyphenyl)-3-hydroxy-6,7-dimethyl-4H-chromen-4-one]
  microglia (anti-inflammatory activity): 14%

## COc1cc(/C=C/C(=O)c2ccc3ccccc3c2O)ccc1OCc1ccccc1 [CMS-063, (E)-3-(4-(benzyloxy)-3-methoxyphenyl)-1-(1-hydroxynaphthalen-2-yl)prop-2-en-1-one]
  microglia (anti-inflammatory activity): 9%

## COc1cc(-c2cc(=O)c3cc(C)c(C)cc3o2)ccc1O [CMS-064, 2-(4-hydroxy-3-methoxyphenyl)-6,7-dimethyl-4H-chromen-4-one]
  microglia (anti-inflammatory activity): 41%

## COc1cc(-c2oc3c(ccc4ccccc43)c(=O)c2O)ccc1OCc1ccccc1 [CMS-065, 2-(4-(benzyloxy)-3-methoxyphenyl)-3-hydroxy-4H-benzo[h]chromen-4-one]
  microglia (anti-inflammatory activity): 88%

## COc1cc(-c2oc3cc(C)c(C)cc3c(=O)c2O)ccc1O [CMS-069, 3-hydroxy-2-(4-hydroxy-3-methoxyphenyl)-6,7-dimethyl-4H-chromen-4-one]
  microglia (anti-inflammatory activity): 77%

## COc1cc(-c2oc3c(ccc4ccccc43)c(=O)c2O)ccc1O [CMS-070, 3-hydroxy-2-(4-hydroxy-3-methoxyphenyl)-4H-benzo[h]chromen-4-one]
  microglia (anti-inflammatory activity): 78%

## COc1cc(-c2ccc(O)cc2O)nc2ccccc12 [CMS-083, 4-methoxy-2-(2,4-dihydroxyphenyl)quinoline]
  microglia (anti-inflammatory activity): 84%

## CC(C)Oc1cc(-c2ccc(O)cc2O)nc2ccccc12 [CMS-084, 4-isopropoxy-2-(2,4-dihydroxyphenyl)quinoline]
  microglia (anti-inflammatory activity): 64%

## Cc1cc(O)c(C(=O)/C=C/c2ccc(O)cc2O)cc1C [CMS-087, (E)-3-(2,4-dihydroxyphenyl)-1-(2-hydroxy-4,5-dimethylphenyl)prop-2-en-1-one]
  microglia (anti-inflammatory activity): 53%

## COc1ccc(/C=C/C(=O)c2cc(C)c(C)cc2O)cc1O [CMS-088, (E)-1-(2-hydroxy-4,5-dimethylphenyl)-3-(3-hydroxy-4-methoxyphenyl)prop-2-en-1-one]
  microglia (anti-inflammatory activity): 56%

## COc1ccc(-c2oc3cc(C)c(C)cc3c(=O)c2O)cc1O [CMS-092, 3-hydroxy-2-(3-hydroxy-4-methoxyphenyl)-6,7-dimethyl-4H-chromen-4-one]
  microglia (anti-inflammatory activity): 72%

## Cc1cc2oc(-c3ccc(O)cc3O)c(O)c(=O)c2cc1C [CMS-093, 2-(2,4-dihydroxyphenyl)-3-hydroxy-6,7-dimethyl-4H-chromen-4-one]
  microglia (anti-inflammatory activity): 0%

## Cc1cc2oc(-c3ccc(O)cc3O)cc(=O)c2cc1C [CMS-094, 2-(2,4-dihydroxyphenyl)-6,7-dimethyl-4H-chromen-4-one]
  microglia (anti-inflammatory activity): 5%

## COc1cc(-c2ccc(N(C)C)cc2)nc2ccccc12 [CMS-109, 4-methoxy-2-(4-dimethylaminophenyl)quinoline]
  microglia (anti-inflammatory activity): 62%

## CC(C)Oc1cc(-c2ccc(N(C)C)cc2)nc2ccccc12 [CMS-112, 4-isopropoxy-2-(4-dimethylaminophenyl)quinoline]
  microglia (anti-inflammatory activity): 71%

## CC(C)Oc1cc(-c2ccc(N3CCCC3)cc2)nc2ccccc12 [CMS-113, 4-isopropoxy-2-(4-(pyrrolidin-1-yl)phenyl)quinoline]
  microglia (anti-inflammatory activity): 67%

## O=c1c(O)c(-c2ccc(N3CCCC3)cc2)oc2c1ccc1ccccc12 [CMS-114, 3-hydroxy-2-(4-(pyrrolidin-1-yl)phenyl)-4H-benzo[h]chromen-4-one]
  microglia (anti-inflammatory activity): 26%

## O=c1cc(-c2ccc(N3CCCC3)cc2)oc2c1ccc1ccccc12 [CMS-115, 2-(4-(pyrrolidin-1-yl)phenyl)-4H-benzo[h]chromen-4-one]
  microglia (anti-inflammatory activity): 23%

## Cc1cc2oc(-c3ccc(N4CCCC4)cc3)cc(=O)c2cc1C [CMS-116, 6,7-dimethyl-2-(4-(pyrrolidin-1-yl)phenyl)-4H-chromen-4-one]
  microglia (anti-inflammatory activity): 2%

## Cc1cc2oc(-c3ccc(N(C)C)cc3)cc(=O)c2cc1C [CMS-119, 2-(4-(dimethylamino)phenyl)-6,7-dimethyl-4H-chromen-4-one]
  microglia (anti-inflammatory activity): 8%

## CN(C)c1ccc(-c2cc(=O)c3ccc4ccccc4c3o2)cc1 [CMS-120, 2-(4-(dimethylamino)phenyl)-4H-benzo[h]chromen-4-one]
  microglia (anti-inflammatory activity): 35%
